The text below walks through data of ChEMBL document CHEMBL4311943, “3-[(1S,2S,3R)-2,3-Difluoro-1-hydroxy-7-methylsulfonylindan-4-yl]oxy-5-fluorobenzonitrile (PT2977), a Hypoxia-Inducible Factor 2α (HIF-2α) Inhibitor for the Treatment of Clear Cell Renal Cell Carcinoma” (J Med Chem, 2019).

pEC50, pIC50: −log10 of the molar value. Converted amounts (≈) assume the structure as drawn. The source made the active and inactive calls. No cut-off for these calls is given here.

Series [1] addresses T1, UDP-glucuronosyltransferase 2B17 (Homo sapiens, UniProt O75795).
T1 sequence (O75795 whole entry): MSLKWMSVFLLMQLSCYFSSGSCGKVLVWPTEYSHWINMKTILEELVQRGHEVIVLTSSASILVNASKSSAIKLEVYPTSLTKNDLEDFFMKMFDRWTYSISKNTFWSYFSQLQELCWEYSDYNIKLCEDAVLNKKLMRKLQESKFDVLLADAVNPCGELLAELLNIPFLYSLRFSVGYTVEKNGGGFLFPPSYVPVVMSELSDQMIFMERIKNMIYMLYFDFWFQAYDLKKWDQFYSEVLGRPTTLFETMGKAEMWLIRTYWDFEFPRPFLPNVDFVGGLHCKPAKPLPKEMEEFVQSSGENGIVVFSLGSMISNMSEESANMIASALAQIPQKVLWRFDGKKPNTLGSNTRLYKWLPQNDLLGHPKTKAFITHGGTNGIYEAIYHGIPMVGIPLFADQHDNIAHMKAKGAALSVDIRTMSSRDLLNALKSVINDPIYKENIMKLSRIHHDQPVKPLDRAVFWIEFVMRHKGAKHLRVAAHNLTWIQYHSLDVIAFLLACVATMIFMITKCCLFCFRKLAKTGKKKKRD
Briefly: Substrate activity at UGT2B17 in human intestinal microsomes assessed as enzyme-mediated glucuronidation by measuring Vmax per mg protein at 2 to 1000 uM preincubated for 5 mins followed by UDPGA addition and measured after 60 mins by LC-MS/MS analysis. In kind it is ADME, Intestine. The conditions noted are these: 1 h.

Series [2] deals with T2, UGT2B17 (Homo sapiens, UniProt O75795).
T2 sequence (O75795 whole entry): T1 sequence (O75795 whole entry)
Briefly: Substrate activity at UGT2B17 in human intestinal microsomes assessed as enzyme-mediated glucuronidation by measuring Km at 2 to 1000 uM preincubated for 5 mins followed by UDPGA addition and measured after 60 mins by LC-MS/MS analysis. In kind it is ADME, Intestine.

Series [3] deals with T2, UGT2B17. The experiment in a line: Substrate activity at recombinant human UGT2B17 expressed in baculovirus infected insect cell membranes assessed as enzyme-mediated glucuronidation by measuring Km at 50 uM preincubated for 5 mins followed by UDPGA addition and measured after 60 mins by LC-MS/MS analysis. In kind it is ADME.
Series [4] has as its target T1, UDP-glucuronosyltransferase 2B17. Briefly: Substrate activity at recombinant human UGT2B17 expressed in baculovirus infected insect cell membranes assessed as enzyme-mediated glucuronidation by measuring Vmax per mg protein at 50 uM preincubated for 5 mins followed by UDPGA addition and measured after 60 mins by LC-MS/MS analysis. In kind it is ADME. The conditions noted are these: 1 h.

A short description of series [5]: Drug metabolism in human hepatocytes assessed as PT2639 formation by HPLC-UV analysis. In kind it is ADME, cell-based, Hepatocyte.
A short description of series [6]: Protein binding in human plasma at 10 uM measured after 4 hrs by LC-MS/MS analysis. In kind it is ADME, cell-free. The conditions noted are these: read-out: PPB (converted).
Series [7] is described as follows: Dose normalized AUClast in Beagle dog at 5 mg/kg, po administered via gavage by UPLC-MS analysis. In kind it is ADME, organism-based, Canis lupus familiaris. The conditions noted are these: in vivo.
The target in series [8] is UDP-glucuronosyltransferase 1A7 (Homo sapiens, UniProt Q9HAW7). Briefly: Substrate activity at recombinant human UGT1A7 expressed in baculovirus infected insect cell membranes assessed as enzyme-mediated glucuronidation by measuring PT2639 formation at 50 uM preincubated for 5 mins followed by UDPGA addition and measured after 60 mins by LC-MS/MS analysis. In kind it is ADME. The conditions noted are these: 1 h.
UDP-glucuronosyltransferase 1A7, sequence (Q9HAW7 whole entry): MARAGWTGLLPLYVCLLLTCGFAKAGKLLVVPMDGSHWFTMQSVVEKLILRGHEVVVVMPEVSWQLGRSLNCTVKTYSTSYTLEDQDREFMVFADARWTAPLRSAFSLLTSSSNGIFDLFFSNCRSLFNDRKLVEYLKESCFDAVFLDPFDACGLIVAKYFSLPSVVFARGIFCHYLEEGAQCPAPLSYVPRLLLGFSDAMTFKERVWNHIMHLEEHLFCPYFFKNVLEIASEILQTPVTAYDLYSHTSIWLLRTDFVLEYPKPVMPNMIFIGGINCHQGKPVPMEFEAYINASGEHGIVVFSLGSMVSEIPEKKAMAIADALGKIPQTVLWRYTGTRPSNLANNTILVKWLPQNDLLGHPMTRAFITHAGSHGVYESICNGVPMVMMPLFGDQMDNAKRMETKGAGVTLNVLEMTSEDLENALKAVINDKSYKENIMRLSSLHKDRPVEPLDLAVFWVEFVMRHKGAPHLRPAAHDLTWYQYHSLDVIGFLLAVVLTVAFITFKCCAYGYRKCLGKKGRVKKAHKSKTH

Series [9] in a line: Dose normalized AUClast in monkey at 10 mg/kg, po administered via gavage by UPLC-MS analysis. In kind it is ADME, organism-based, Macaca mulatta. The following applies: rhesus monkey, in vivo.
The nature of series [10]: Drug metabolism in po dosed dog urine assessed as PT2639 formation. In kind it is ADME, organism-based, Canis lupus familiaris. The following applies: in vivo.
The nature of series [11]: Drug level in plasma of SCID Beige mouse xenografted with human 786-O cells at 10 mg/kg, po administered twice daily via gavage for 3 days measured 12 hrs post-last dose. In kind it is ADME, organism-based.
Series [12] is described as follows: Lipophilicity, log D of the compound at pH 7.4. The following applies: buffer. In kind it is physicochemical.
Series [13] can be described thus: Protein binding in mouse plasma at 10 uM measured after 4 hrs by LC-MS/MS analysis. In kind it is ADME, cell-free. The conditions noted are these: read-out: PPB (converted).
The next series concerns Homo sapiens. The experiment in a line: In vivo inhibition of HIF-2alpha in patient with advanced solid tumor assessed as reduction in EPO expression at >500 ng/ml, po administered once daily. In kind it is organism-based.
Series [14] is described as follows: Dose normalized AUClast in CD-1 mouse at 10 mg/kg, po administered via gavage by UPLC-MS analysis. In kind it is ADME, organism-based. The conditions noted are these: in vivo.
The subject of another series is 786-0. Briefly: Antitumor activity against human 786-O cells xenografted in SCID Beige mouse assessed as tumor regression at 10 mg/kg, po administered twice daily via gavage for 3 days measured 12 hrs post-last. In kind it is functional, organism-based.
A further series concerns Mus musculus. Briefly: In vivo inhibition of HIF-2alpha in SCID Beige mouse xenografted with human 786-O cells assessed as reduction in cyclin D1 mRNA expression at 10 mg/kg, po administered twice daily via gavage for 3 days measured 12 hrs post-last dose by qRT-PCR analysis. In kind it is functional, organism-based.
The nature of series [15]: Dose normalized AUClast in Sprague-Dawley rat at 10 mg/kg, po administered via gavage by UPLC-MS analysis. In kind it is ADME, organism-based. The following applies: in vivo.
A short description of series [16]: Thermodynamic aqueous solubility of the compound at pH 7.4. In kind it is physicochemical. The following applies: buffer, read-out: Therm_solubility.
Series [17] can be described thus: Cmin in patient with advanced solid tumor at 800 mg, po administered twice daily measured on day 15 measured after 12 hrs. The conditions noted are these: human, in vivo.
In series [18] the target is UDP-glucuronosyltransferase 1A3 (Homo sapiens, UniProt P35503). The experiment in a line: Substrate activity at recombinant human UGT1A3 expressed in baculovirus infected insect cell membranes assessed as enzyme-mediated glucuronidation by measuring PT2639 formation at 50 uM preincubated for 5 mins followed by UDPGA addition and measured after 60 mins by LC-MS/MS analysis. In kind it is ADME. The following applies: 1 h.
UDP-glucuronosyltransferase 1A3, sequence (P35503 whole entry): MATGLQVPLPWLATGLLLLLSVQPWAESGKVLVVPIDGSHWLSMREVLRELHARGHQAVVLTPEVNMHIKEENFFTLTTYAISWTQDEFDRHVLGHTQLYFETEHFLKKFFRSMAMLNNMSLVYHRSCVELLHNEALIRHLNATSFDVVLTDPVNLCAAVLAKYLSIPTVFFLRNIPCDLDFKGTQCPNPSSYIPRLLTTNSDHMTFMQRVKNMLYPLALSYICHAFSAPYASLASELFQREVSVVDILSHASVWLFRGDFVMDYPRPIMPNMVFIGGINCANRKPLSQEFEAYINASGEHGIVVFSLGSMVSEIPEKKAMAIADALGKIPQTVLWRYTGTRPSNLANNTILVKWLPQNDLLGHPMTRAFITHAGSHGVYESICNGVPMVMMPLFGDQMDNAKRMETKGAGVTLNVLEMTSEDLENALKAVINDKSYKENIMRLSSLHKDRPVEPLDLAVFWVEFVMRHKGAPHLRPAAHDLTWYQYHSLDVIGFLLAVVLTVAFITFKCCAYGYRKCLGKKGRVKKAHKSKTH

For series [19], the target named is T3, Endothelial PAS domain-containing protein 1 (Homo sapiens, UniProt Q99814). Briefly: Inhibition of N-(3-Chlorophenyl-4,6-t2)-4-nitrobenzo[c][1,2,5]oxadiazol-5-amine binding to his-tagged HIF-2alpha PAS-B domain (unknown origin) measured after 1 hr by scintillation proximity assay.
T3 sequence (Q99814 whole entry, the tested form may be a part): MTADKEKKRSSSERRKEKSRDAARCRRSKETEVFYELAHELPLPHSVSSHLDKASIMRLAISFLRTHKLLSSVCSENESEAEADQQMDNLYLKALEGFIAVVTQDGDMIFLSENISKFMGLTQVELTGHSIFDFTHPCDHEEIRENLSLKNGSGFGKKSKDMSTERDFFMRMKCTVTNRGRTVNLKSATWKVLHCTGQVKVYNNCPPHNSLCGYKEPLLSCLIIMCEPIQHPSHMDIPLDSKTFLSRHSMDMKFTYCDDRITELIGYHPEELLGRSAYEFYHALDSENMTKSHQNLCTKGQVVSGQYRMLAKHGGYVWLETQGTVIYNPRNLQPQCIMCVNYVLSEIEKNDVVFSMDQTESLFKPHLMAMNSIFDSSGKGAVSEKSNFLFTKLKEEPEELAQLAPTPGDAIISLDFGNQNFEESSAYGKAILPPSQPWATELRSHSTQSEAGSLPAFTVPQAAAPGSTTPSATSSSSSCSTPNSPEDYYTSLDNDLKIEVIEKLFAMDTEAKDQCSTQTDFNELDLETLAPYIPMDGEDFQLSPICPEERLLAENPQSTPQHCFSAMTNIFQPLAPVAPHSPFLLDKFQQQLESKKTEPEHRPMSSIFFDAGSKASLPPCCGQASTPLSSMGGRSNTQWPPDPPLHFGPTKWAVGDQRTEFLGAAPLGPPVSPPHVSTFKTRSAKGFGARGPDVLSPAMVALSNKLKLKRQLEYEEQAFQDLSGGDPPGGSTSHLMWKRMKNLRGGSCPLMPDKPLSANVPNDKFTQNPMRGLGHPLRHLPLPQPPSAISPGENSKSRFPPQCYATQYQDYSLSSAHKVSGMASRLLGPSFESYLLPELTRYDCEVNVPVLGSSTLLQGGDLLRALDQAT
For series [20], the target named is T3, Endothelial PAS domain-containing protein 1.
Description: Inhibition of HIF-2alpha (unknown origin) expressed in human 786-O cells measured after 24 hrs by one-glo luciferase reporter gene assay
Series [21] can be described thus: Drug metabolism in iv or po dosed dog assessed as PT2385 formation. In kind it is ADME, organism-based, Canis lupus familiaris. The following applies: in vivo.
Another series addresses MRP2 (ABCC2) (Homo sapiens, UniProt Q92887). The experiment in a line: Substrate activity at human MRP2 expressed in Sf9 membrane vesicles assessed as Km. In kind it is ADME. The conditions noted are these: Sf9 membrane vesicles expressing human MRP2.
A further series concerns the target P-gp (ABCB1) (Homo sapiens, UniProt P08183). Briefly: Substrate activity at P-gp (unknown origin) expressed in MDCK2 cells assessed as efflux ratio of permeability at up to 300 uM. In kind it is ADME, cell-based. The following applies: MDCK-MDR1.
Series [22] concerns the target T4, ATP-binding cassette sub-family C member 2 (Homo sapiens, UniProt Q92887). The experiment in a line: Substrate activity at human MRP2 expressed in Sf9 membrane vesicles assessed as Vmax per mg protein. In kind it is ADME.
The next series has as its target Beta-glucuronidase (Escherichia coli (strain K12), UniProt P05804). Briefly: Drug metabolism assessed as Escherichia coli beta-glucuronidase-mediated PT2385 formation after 30 mins by LC-MS/MS analysis. The following applies: isolated protein, 0.5 h. In kind it is ADME.
The target of a further series is BCRP (ABCG2) (Homo sapiens, UniProt Q9UNQ0). Briefly: Substrate activity at BCRP (unknown origin) expressed in MDCK2 cells assessed as efflux ratio of permeability at up to 300 uM. In kind it is ADME, cell-based.
BCRP (ABCG2), sequence (Q9UNQ0 whole entry): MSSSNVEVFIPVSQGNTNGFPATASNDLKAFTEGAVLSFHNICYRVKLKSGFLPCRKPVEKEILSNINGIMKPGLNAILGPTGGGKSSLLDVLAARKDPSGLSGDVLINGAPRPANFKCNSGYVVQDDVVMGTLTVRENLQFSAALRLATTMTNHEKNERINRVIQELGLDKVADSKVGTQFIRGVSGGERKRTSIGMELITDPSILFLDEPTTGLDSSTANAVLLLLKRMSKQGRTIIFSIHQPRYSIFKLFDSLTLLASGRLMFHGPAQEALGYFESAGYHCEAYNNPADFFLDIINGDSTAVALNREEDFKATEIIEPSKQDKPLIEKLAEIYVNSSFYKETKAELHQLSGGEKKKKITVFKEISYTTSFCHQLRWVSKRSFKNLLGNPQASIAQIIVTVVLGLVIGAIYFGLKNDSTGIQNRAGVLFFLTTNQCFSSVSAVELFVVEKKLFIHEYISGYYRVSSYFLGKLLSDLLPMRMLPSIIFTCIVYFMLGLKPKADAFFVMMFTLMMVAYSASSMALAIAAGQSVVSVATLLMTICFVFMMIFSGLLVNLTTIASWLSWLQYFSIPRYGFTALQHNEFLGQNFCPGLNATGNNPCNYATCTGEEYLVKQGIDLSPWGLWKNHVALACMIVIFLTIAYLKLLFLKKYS
A short description of series [23]: Drug level in human hepatocytes treated with PT2385 assessed as metabolite formation by HPLC-UV analysis. In kind it is ADME, cell-based, Hepatocyte.
The target in series [24] is T4, ATP-binding cassette sub-family C member 2. The experiment in a line: Ratio of compound effect for substrate activity at human MRP2 expressed in Sf9 membrane vesicles assessed as protein-mediated drug uptake in presence of ATP to compound effect for substrate activity at human MRP2 expressed in Sf9 membrane vesicles assessed as protein-mediated drug uptake in absence of ATP. In kind it is ADME, cell membranes.

T4 sequence (Q92887 whole entry): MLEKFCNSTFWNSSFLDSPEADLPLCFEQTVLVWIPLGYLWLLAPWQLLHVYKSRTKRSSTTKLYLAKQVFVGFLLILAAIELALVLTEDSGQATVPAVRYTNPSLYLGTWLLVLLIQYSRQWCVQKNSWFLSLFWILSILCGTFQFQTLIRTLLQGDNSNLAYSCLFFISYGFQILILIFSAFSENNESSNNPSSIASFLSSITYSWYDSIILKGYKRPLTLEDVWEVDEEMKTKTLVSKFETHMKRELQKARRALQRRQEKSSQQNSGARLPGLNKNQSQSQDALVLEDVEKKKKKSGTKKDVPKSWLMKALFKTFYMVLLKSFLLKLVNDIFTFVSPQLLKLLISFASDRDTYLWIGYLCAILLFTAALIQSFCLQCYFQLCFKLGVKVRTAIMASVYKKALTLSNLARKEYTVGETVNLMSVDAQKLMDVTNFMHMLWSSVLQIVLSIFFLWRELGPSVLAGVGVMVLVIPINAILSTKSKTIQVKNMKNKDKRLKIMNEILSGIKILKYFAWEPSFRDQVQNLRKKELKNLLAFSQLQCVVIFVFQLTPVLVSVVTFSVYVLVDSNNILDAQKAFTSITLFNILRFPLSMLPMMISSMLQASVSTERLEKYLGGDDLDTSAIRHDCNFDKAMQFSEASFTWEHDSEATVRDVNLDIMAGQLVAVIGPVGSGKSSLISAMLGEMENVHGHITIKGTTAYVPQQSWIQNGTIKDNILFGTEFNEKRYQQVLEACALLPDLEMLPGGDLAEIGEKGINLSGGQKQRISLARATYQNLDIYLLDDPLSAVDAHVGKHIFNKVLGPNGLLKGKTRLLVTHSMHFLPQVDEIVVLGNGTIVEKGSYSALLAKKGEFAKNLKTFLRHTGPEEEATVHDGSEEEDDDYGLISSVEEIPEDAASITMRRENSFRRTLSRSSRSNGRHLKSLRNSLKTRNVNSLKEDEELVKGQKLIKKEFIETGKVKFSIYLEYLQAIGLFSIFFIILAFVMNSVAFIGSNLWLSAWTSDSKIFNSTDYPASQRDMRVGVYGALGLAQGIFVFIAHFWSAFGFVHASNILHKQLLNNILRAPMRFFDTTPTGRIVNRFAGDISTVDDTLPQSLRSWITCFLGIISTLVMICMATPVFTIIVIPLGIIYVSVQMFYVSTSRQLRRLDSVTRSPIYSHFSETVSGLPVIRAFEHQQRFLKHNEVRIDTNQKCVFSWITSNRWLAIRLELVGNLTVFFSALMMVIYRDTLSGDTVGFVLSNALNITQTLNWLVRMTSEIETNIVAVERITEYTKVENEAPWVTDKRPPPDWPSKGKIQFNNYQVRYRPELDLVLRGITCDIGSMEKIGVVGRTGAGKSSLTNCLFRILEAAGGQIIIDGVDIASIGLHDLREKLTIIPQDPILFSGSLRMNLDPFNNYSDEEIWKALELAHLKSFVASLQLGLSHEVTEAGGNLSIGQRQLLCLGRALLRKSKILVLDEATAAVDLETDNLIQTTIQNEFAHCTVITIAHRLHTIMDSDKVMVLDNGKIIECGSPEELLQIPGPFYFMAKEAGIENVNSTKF
MRP2 (ABCC2), sequence (Q92887 whole entry): as above
Beta-glucuronidase, sequence (P05804 whole entry): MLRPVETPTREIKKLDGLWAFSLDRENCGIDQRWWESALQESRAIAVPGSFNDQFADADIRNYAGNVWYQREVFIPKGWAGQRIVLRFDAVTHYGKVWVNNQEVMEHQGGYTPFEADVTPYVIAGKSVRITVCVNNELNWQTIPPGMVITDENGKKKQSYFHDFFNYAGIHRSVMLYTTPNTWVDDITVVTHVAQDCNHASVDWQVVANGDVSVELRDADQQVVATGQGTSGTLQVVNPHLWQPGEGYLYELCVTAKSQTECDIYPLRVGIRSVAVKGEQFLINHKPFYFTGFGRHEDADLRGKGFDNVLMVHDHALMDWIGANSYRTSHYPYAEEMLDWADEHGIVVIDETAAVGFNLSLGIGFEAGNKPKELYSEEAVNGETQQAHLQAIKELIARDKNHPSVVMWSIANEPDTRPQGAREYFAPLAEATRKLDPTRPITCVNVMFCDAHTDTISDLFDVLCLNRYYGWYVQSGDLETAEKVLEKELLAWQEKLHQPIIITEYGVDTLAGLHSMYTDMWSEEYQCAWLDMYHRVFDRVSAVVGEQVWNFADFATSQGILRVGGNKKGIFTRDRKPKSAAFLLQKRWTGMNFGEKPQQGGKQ

`CS(=O)(=O)c1ccc(Oc2cc(F)cc(C#N)c2)c2c1[C@H](O)[C@H](F)C2`: the Vmax in series [1] turned out to be 2.1 pmol/min; in series [4], 14 pmol/min. Besides, at UGT2B17 [2], the Km at 1 h, up to 1000 µM was found to be 28 µM. The Km at 1 h, 50 µM on UGT2B17 [3] was found to be 15 µM.
Consider `CS(=O)(=O)c1ccc(Oc2cc(F)cc(C#N)c2)c2c1[C@H](O)[C@@H](F)C2`, for which the results for the Vmax in [1] and in series [4] were 11 pmol/min and 50 pmol/min, respectively. Also, on UGT2B17 [2], the Km at 1 h, up to 1000 µM came to 26 µM. Moreover, the Km at 1 h, 50 µM at UGT2B17 [3] came out at 15 µM.
In the case of `CS(=O)(=O)c1ccc(Oc2cc(F)cc(C#N)c2)c2c1[C@H](O)C(F)(F)C2`, the Drug metabolism entry in series [5] was “Metabolite_Detected”; in series [8] it was “Metabolite_Notdetected”; in [10], “Metabolite_Detected”; in [18], “Metabolite_Notdetected”. The results for the fraction unbound at 4 h, 10 µM in series [6] and in series [13] were 0.18 and 0.29, respectively. The AUClast/dose in [7] was found to be 7.2 µM·h; in series [9], 3.1 µM·h; in series [14], 21 µM·h; in series [15], 5.1 µM·h. Moreover, the Vmax is 49 pmol/min in [1] and 280 pmol/min in series [4]. In addition, the concentration at 12 h in series [11] stood at 260 ng/mL; in series [17] it was 860 ng/mL. This compound showed a logD in series [12] of 2.2. Further, the Km at 1 h, up to 1000 µM at UGT2B17 [2] stood at 20 µM. Further, on UGT2B17 [3], the Km at 1 h, 50 µM stood at 11 µM. Further, in the series with Homo sapiens, the “inhibition (INH)” value is “Active”. The result in the series with 786-0 was Active. Further, the inhibition result in the series on Mus musculus is “Active”. In addition, the solubility thermodynamic in [16] came out at 15 µg/mL (≈ 39.1 µM).
With `CS(=O)(=O)c1ccc(Oc2cc(F)cc(C#N)c2)c2c1[C@H](O)C[C@H]2F`, the pIC50 in series [19] is less than 5.00.
As for `CS(=O)(=O)c1ccc(Oc2cc(F)cc(C#N)c2)c2c1[C@H](O)CC2`, the Vmax in series [1] was 0.8 pmol/min; in [4], 3.8 pmol/min. Also, on UGT2B17 [2], the Km at 1 h, up to 1000 µM was determined as 40 µM. For the same compound, the Km at 1 h, 50 µM at UGT2B17 [3] is 12 µM.
In the case of `CS(=O)(=O)c1ccc(Oc2cc(F)cc(C#N)c2)c2c1[C@H](O)C(F)(F)[C@@H]2F`, the values for the maximal velocity (Vmax) in series [1] and in [4] were 72 pmol/min and 440 pmol/min, respectively. This compound had a pEC50 in [20] of 8.40. At UGT2B17 [2], the Km at 1 h, up to 1000 µM is 15 µM. The Km at 1 h, 50 µM at UGT2B17 [3] worked out at 5.5 µM. Moreover, the pIC50 in series [19] is 8.05.
Take `CS(=O)(=O)c1ccc(Oc2cc(F)cc(C#N)c2)c2c1[C@H](O)C[C@@H]2F`: the Vmax worked out at 0.3 pmol/min in series [1] and 1.4 pmol/min in series [4]. The compound further showed a pEC50 in series [20] of 6.34. Moreover, at UGT2B17 [2], the Km at 1 h, up to 1000 µM came to 130 µM. For the same compound, at UGT2B17 [3], the Km at 1 h, 50 µM is 12 µM. This compound had a pIC50 in series [19] of 6.68.
For the compound `CS(=O)(=O)c1ccc(Oc2cc(F)cc(C#N)c2)c2c1[C@H](O[C@@H]1O[C@H](C(=O)O)[C@@H](O)[C@H](O)[C@H]1O)C(F)(F)C2`, the Drug metabolism result (in [21]; on Beta-glucuronidase; in series [23]) was “Metabolite_Detected” throughout. Besides, the Km on MRP2 (ABCC2) came out at 97 µM. Besides, the efflux ratio at P-gp (ABCB1) and on BCRP (ABCG2) was less than 2 in each case. Further, the Vmax in series [22] is recorded as 1230 pmol/min. For the same compound, in [24], the Ratio amounted to 32.
